Assay results published in ChEMBL document CHEMBL1201862, “PubChem BioAssay data set” (2004).
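Briefly, cells in 96-well plates were exposed to five compound concentrations for 48 h, and endpoints were estimated by linear interpolation. GI50 marks 50% less growth.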 Activity calls are given as the source filed them. Cut-off read from the data, not from the text of the source: active = GI50 up to about 1.1 µM and inactive = higher.

How the values were obtained:
Assay in all cases: NCI-60 cell line screen, 48 h
SK-MEL-5 = test system: SK-MEL-5
IGROV-1 = test system: IGROV-1
OVCAR-5 = test system: OVCAR-5
K562 = test system: K562
NCI-H522 = test system: NCI-H522
ACHN = test system: ACHN
RPMI-8226 = test system: RPMI-8226
SN12C = test system: SN12C
UACC-62 = test system: UACC-62
OVCAR-3 = test system: OVCAR-3
LOX IMVI = test system: LOX IMVI
RXF 393 = test system: RXF 393
COLO 205 = test system: COLO 205
HCT-15 = test system: HCT-15
A549 = test system: A549
UO-31 = test system: UO-31
CCRF-CEM = test system: CCRF-CEM
SR = test system: SR
HCC 2998 = test system: HCC 2998

Compound | GI50 (SK-MEL-5) | GI50 (IGROV-1) | GI50 (OVCAR-5) | GI50 (K562) | GI50 (NCI-H522) | GI50 (ACHN) | GI50 (RPMI-8226) | GI50 (SN12C) | GI50 (UACC-62) | GI50 (OVCAR-3) | GI50 (LOX IMVI) | GI50 (RXF 393) | GI50 (COLO 205) | GI50 (HCT-15) | GI50 (A549) | GI50 (UO-31) | GI50 (CCRF-CEM) | GI50 (SR) | GI50 (HCC 2998)
COc1cc2ccc(C(=O)O)cc2cc1OC | > 100 µM (inactive) | > 100 µM (inactive) | > 100 µM (inactive) | > 100 µM (inactive) | > 100 µM (inactive) | > 100 µM (inactive) | > 100 µM (inactive) | > 100 µM (inactive) | > 100 µM (inactive) | > 100 µM (inactive) | > 100 µM (inactive) | > 100 µM (inactive) | > 100 µM (inactive) | > 100 µM | > 100 µM (inactive) | > 100 µM (inactive) | > 100 µM (inactive) |  | 
CCC1=C(CC)C1(C#N)[N+](=O)[O-] | > 100 µM (inactive) | > 100 µM (inactive) | > 100 µM (inactive) | > 100 µM (inactive) | > 100 µM (inactive) | > 100 µM (inactive) | 82.2 µM (inactive) | > 100 µM (inactive) | > 100 µM (inactive) | > 100 µM (inactive) | > 100 µM (inactive) |  | > 100 µM (inactive) | > 100 µM | > 100 µM (inactive) | > 100 µM (inactive) | > 100 µM (inactive) | > 100 µM (inactive) | 
O=C(Nc1ccc(Cl)cc1)c1cc(S(=O)(=O)Nc2n[nH]c(=O)[nH]2)c(SSc2cc(Cl)c(C(=O)Nc3ccc(Cl)cc3)cc2S(=O)(=O)Nc2n[nH]c(=O)[nH]2)cc1Cl | > 100 µM (inactive) | > 100 µM (inactive) | > 100 µM (inactive) | > 100 µM (inactive) | > 100 µM (inactive) | > 100 µM (inactive) | > 100 µM (inactive) | > 100 µM (inactive) | > 100 µM (inactive) | > 100 µM (inactive) | > 100 µM (inactive) |  | > 100 µM (inactive) | > 100 µM | > 100 µM (inactive) | > 100 µM (inactive) | > 100 µM (inactive) | > 100 µM (inactive) | > 100 µM (inactive)
CC(C)c1cccc(C(C)C)c1NC(=O)CCC(=O)NN | > 100 µM (inactive) | > 100 µM (inactive) | > 100 µM (inactive) | 58.6 µM (inactive) |  | > 100 µM (inactive) | 46.1 µM (inactive) | > 100 µM (inactive) | > 100 µM (inactive) | > 100 µM (inactive) |  |  | 19.6 µM (inactive) | 18 µM | > 100 µM (inactive) | > 100 µM (inactive) | > 100 µM (inactive) |  | > 100 µM (inactive)
O=C(CC/C(CC(=O)c1ccc(Cl)cc1)=N\O)Nc1cccc(Cl)c1 | > 100 µM (inactive) | > 100 µM (inactive) | > 100 µM (inactive) | > 100 µM (inactive) |  | > 100 µM (inactive) | > 100 µM (inactive) | > 100 µM (inactive) | > 100 µM (inactive) | > 100 µM (inactive) | > 100 µM (inactive) |  | > 100 µM (inactive) | > 100 µM | > 100 µM (inactive) | > 100 µM (inactive) | > 100 µM (inactive) |  | > 100 µM (inactive)
Cc1cc(C)c2c(c1)CN1CN2Cc2cc(C)cc(C)c21 |  | 23.4 µM (inactive) | 55.1 µM (inactive) | 27.7 µM (inactive) | 29 µM (inactive) | 18 µM (inactive) | 19.9 µM (inactive) | 16.9 µM (inactive) | 16 µM (inactive) | 14.8 µM (inactive) | 17 µM (inactive) | 6.68 µM (inactive) | 22.1 µM (inactive) | > 10 µM | 27.2 µM (inactive) | 24.4 µM (inactive) | 24.6 µM (inactive) | 18.8 µM (inactive) | 
COc1cc([C@@H]2c3cc4c(cc3[C@@H](NCc3cccc(C#N)c3)C3COC(=O)[C@@H]32)OCO4)cc(OC)c1O (some centres undefined) | 2.02 µM (inactive) | 1.03 µM (active) | 2.84 µM (inactive) | 1.83 µM (inactive) | 1.46 µM (inactive) | 0.305 µM (active) | 1.2 µM (inactive) | 0.448 µM (active) | 0.524 µM (active) | 2.57 µM (inactive) | 1.27 µM (inactive) | 2.34 µM (inactive) | 2.99 µM (inactive) | 1.17 µM | 0.0815 µM (active) | 2.22 µM (inactive) | 0.224 µM (active) |  | 1.48 µM (inactive)
Cc1cc(=O)n(-c2c(C)cccc2Cl)c(/C=C(\O)c2ccncc2)n1 | 96.4 µM (inactive) | > 100 µM (inactive) | 98.6 µM (inactive) | 44.8 µM (inactive) | > 100 µM (inactive) | > 100 µM (inactive) |  | > 100 µM (inactive) | > 100 µM (inactive) | > 100 µM (inactive) | > 100 µM (inactive) | > 100 µM (inactive) | > 100 µM (inactive) | > 100 µM | > 100 µM (inactive) | 35.3 µM (inactive) | > 100 µM (inactive) |  | > 100 µM (inactive)
O=C1Cc2ccccc2N1/N=C\c1ccc([N+](=O)[O-])cc1 | > 100 µM (inactive) | > 100 µM (inactive) | > 100 µM (inactive) | > 100 µM (inactive) |  | > 100 µM (inactive) | > 100 µM (inactive) |  | > 100 µM (inactive) | > 100 µM (inactive) | > 100 µM (inactive) |  | > 100 µM (inactive) | > 100 µM | > 100 µM (inactive) | > 100 µM (inactive) | > 100 µM (inactive) |  | > 100 µM (inactive)
CC(C)c1ccc(Cc2ccc(C(C)C)c(NC(=O)C(=O)Cc3cnc4ccccc4n3)c2C(C)C)c(C(C)C)c1NC(=O)C(=O)Cc1cnc2ccccc2n1 | > 100 µM (inactive) | > 100 µM (inactive) | > 100 µM (inactive) | > 100 µM (inactive) |  | > 100 µM (inactive) | > 100 µM (inactive) |  | > 100 µM (inactive) | > 100 µM (inactive) | > 100 µM (inactive) |  | > 100 µM (inactive) | > 100 µM | > 100 µM (inactive) | 53 µM (inactive) | > 100 µM (inactive) |  | > 100 µM (inactive)
CC(=O)N1CC2Nc3ccccc3C2CC1CO (centres undefined) | > 100 µM (inactive) | > 100 µM (inactive) | > 100 µM (inactive) | > 100 µM (inactive) | > 100 µM (inactive) | > 100 µM (inactive) | > 100 µM (inactive) | > 100 µM (inactive) | > 100 µM (inactive) | > 100 µM (inactive) | > 100 µM (inactive) | > 100 µM (inactive) | > 100 µM (inactive) | > 100 µM | > 100 µM (inactive) | > 100 µM (inactive) | > 100 µM (inactive) |  | > 100 µM (inactive)
NC(=O)c1cn(Cc2ccccc2)c(=O)n1Cc1ccccc1 | > 100 µM (inactive) | > 100 µM (inactive) | > 100 µM (inactive) | > 100 µM (inactive) | > 100 µM (inactive) | > 100 µM (inactive) | > 100 µM (inactive) | > 100 µM (inactive) | > 100 µM (inactive) | > 100 µM (inactive) | > 100 µM (inactive) | > 100 µM (inactive) | > 100 µM (inactive) | > 100 µM | > 100 µM (inactive) | > 100 µM (inactive) | > 100 µM (inactive) |  | > 100 µM (inactive)
CC1(C)Cc2c(oc3ncnc(N)c23)CS1 | > 100 µM (inactive) | > 100 µM (inactive) | > 100 µM (inactive) | > 100 µM (inactive) | > 100 µM (inactive) | > 100 µM (inactive) | > 100 µM (inactive) | > 100 µM (inactive) | > 100 µM (inactive) | > 100 µM (inactive) | > 100 µM (inactive) |  | > 100 µM (inactive) | > 100 µM | > 100 µM (inactive) | 49.2 µM (inactive) | > 100 µM (inactive) | > 100 µM (inactive) | > 100 µM (inactive)
CCCNC(=O)C1C(=O)C(=O)N(CCC)C1=O (centres undefined) | > 100 µM (inactive) | > 100 µM (inactive) | 56.9 µM (inactive) | > 100 µM (inactive) | > 100 µM (inactive) | > 100 µM (inactive) | > 100 µM (inactive) | > 100 µM (inactive) | > 100 µM (inactive) | > 100 µM (inactive) | > 100 µM (inactive) | > 100 µM (inactive) | > 100 µM (inactive) | > 100 µM | > 100 µM (inactive) | > 100 µM (inactive) | > 100 µM (inactive) |  | > 100 µM (inactive)
COC(=O)NC12CC3CC(CC(F)(C3)C1)C2 |  | > 100 µM (inactive) | > 100 µM (inactive) | > 100 µM (inactive) | > 100 µM (inactive) | > 100 µM (inactive) | > 100 µM (inactive) |  | > 100 µM (inactive) | > 100 µM (inactive) | > 100 µM (inactive) | > 100 µM (inactive) | > 100 µM (inactive) |  | > 100 µM (inactive) | > 100 µM (inactive) | > 100 µM (inactive) |  | > 100 µM (inactive)
O=C(CCC(=O)Nc1cccc(Cl)c1)CC(=O)c1ccc(F)cc1 |  |  | > 100 µM (inactive) | > 100 µM (inactive) | > 100 µM (inactive) | > 100 µM (inactive) | > 100 µM (inactive) | > 100 µM (inactive) | > 100 µM (inactive) | > 100 µM (inactive) | > 100 µM (inactive) |  | > 100 µM (inactive) | > 100 µM | > 100 µM (inactive) | > 100 µM (inactive) |  | > 100 µM (inactive) | > 100 µM (inactive)
CCOC(=O)[C@]12C3C=CC(C3)C1C(=O)C1OC12 (some centres undefined) | > 100 µM (inactive) | > 100 µM (inactive) | > 100 µM (inactive) | > 100 µM (inactive) | > 100 µM (inactive) | > 100 µM (inactive) | > 100 µM (inactive) | > 100 µM (inactive) | > 100 µM (inactive) | > 100 µM (inactive) | > 100 µM (inactive) |  | > 100 µM (inactive) | > 100 µM | > 100 µM (inactive) | > 100 µM (inactive) | > 100 µM (inactive) |  | > 100 µM (inactive)
